Results published in patent EP0632041A1, “New morphine derivatives having improved analgesic and narcotic properties” (priority 1993, dated 1995).
Where two headings read alike, the source gives them in different places.

Tests used:
mice = details: cited from earlier work
[1] = pH of 7.4; relative to morphine; cited from earlier work
[2] = system: homogenate of bovine caudate nucleus; details: cited from earlier work
[3] = compared with prediction and with morphine; cited from earlier work
[4] = cited from earlier work
[5] = more potent than morphine; cited from earlier work
[6] = more potent than morphine; cited from earlier work; remark: listed apart in the source
δ receptors = δ receptors (Homo sapiens, UniProt P41143); details: binding studies; cited from earlier work
δ receptors, sequence (P41143 whole entry, looked up): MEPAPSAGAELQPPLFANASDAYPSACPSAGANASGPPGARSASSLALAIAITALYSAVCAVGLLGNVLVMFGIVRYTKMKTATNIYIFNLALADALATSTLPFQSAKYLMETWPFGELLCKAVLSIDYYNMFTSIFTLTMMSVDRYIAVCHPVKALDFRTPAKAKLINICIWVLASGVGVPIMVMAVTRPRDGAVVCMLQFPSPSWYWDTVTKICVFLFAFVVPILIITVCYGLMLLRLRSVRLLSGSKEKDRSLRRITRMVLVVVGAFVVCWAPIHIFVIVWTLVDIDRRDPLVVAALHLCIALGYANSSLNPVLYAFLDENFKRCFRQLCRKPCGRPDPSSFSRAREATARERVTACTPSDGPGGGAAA

rats = assay: reflex inhibition and antinociception after intravenous and intrathecal injection in rats; type: in vivo; details: for antinociceptive efficacy: after intrathecal injection; for reflex inhibitory potency: intravenous and intrathecal injection
µ receptors = µ receptors (Homo sapiens, UniProt P35372); details: binding studies; cited from earlier work
µ receptors, sequence (P35372 whole entry): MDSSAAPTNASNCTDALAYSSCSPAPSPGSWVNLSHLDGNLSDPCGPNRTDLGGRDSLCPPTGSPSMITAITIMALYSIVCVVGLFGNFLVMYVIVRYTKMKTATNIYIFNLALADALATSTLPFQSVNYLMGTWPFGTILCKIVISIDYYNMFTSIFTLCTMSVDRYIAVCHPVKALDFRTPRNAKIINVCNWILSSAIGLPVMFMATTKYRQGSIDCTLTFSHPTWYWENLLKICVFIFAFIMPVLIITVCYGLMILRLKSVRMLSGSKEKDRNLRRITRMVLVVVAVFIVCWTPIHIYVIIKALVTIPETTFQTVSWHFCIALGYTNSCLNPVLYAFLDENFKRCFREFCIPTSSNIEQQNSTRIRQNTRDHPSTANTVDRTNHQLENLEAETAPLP

κ receptors = κ receptors (Homo sapiens, UniProt P41145); details: binding studies; cited from earlier work
κ receptors, sequence (P41145 whole entry, looked up): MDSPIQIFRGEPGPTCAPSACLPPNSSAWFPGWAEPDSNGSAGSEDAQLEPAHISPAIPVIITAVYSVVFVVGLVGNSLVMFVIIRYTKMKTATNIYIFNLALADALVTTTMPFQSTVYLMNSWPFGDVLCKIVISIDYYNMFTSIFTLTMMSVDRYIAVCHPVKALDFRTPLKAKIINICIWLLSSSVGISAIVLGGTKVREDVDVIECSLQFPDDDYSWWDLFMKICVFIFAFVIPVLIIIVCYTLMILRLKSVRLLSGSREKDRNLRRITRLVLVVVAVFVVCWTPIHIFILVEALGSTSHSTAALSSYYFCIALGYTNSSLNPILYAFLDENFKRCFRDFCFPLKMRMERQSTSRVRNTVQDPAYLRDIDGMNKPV

Q: Which “analgesic potency at both levels of the neuraxis” value (mice; mouse, in vivo) does the source give for `CN1CC[C@]23c4c5ccc(O)c4O[C@H]2[C@@H](O)C=C[C@H]3[C@H]1C5` [morphine] here?
A: equipotent

Q: Which “lipid solubility higher than that of morphine” value [1] does the source give for `CN1CC[C@]23c4c5ccc(OC(=O)c6cccnc6)c4O[C@H]2[C@@H](OC(=O)c2cccnc2)C=C[C@H]3[C@H]1C5` [nicomorphine, 3,6-dinicotinoyl-morphine] here?
A: about 10 fold

Q: Which results are given for `CN1CC[C@]23c4c5ccc(O)c4O[C@H]2[C@@H](O[C@@H]2O[C@H](C(=O)O)[C@@H](O)[C@H](O)[C@H]2O)C=C[C@H]3[C@H]1C5` [Example M-6-G, morphine-6-glucuronide]?
A: ability to displace ³H-naloxone [2]: comparable to that of morphine; analgesic potency relative to morphine (mice; given intrathecally): 90 fold; analgesic potency relative to morphine (mice; given intravenously): 650 fold; analgesic effectiveness at the level of the spinal cord versus supraspinally (mice; spinal cord compared with supraspinal): approximately 5 fold; analgesia, effect relative to morphine (mice; subcutaneous administration, mice): approximately twice; lipophilicity [3]: far more lipophilic than predicted; seizure activity ([4]; high doses): profound seizure activity; potency relative to morphine following microinjection ([4]; microinjection into the periaquaductal grey): up to 20 fold; antinociceptive potency relative to morphine, tail-flick [5]: 61 fold; antinociceptive potency relative to morphine, writhing [6]: 45 fold; affinity, δ receptors (δ receptors): not

Q: Which results are given for `CN1CC[C@]23c4c5ccc(O)c4O[C@H]2[C@@H](NC(=O)c2cccnc2)CC[C@H]3[C@H]1C5` [7,8-dihydro-6α-nicotinoylaminomorphine]?
A: antinociceptive efficacy (rats): long-lasting antinociceptive efficacy; reflex inhibitory potency (rats): strong reflex inhibitory potency

Q: Which results are given for `COc1ccc2c3c1O[C@H]1[C@@H](NC(=O)c4cccnc4)CC[C@H]4[C@@H](C2)N(C)CC[C@@]341` [7,8-dihydro-6α-nicotinoylaminocodeine]?
A: antinociceptive efficacy (rats): long-lasting antinociceptive efficacy; reflex inhibitory potency (rats): strong reflex inhibitory potency

Q: Which results are given for `CN1CC[C@]23c4c5ccc(O[C@@H]6O[C@H](C(=O)O)[C@@H](O)[C@H](O)[C@H]6O)c4O[C@H]2[C@@H](O)C=C[C@H]3[C@H]1C5` [Example M-3-G]?
A: affinity, µ receptors (µ receptors): poor affinity; lipophilicity [3]: far more lipophilic than predicted; effect of microinjection ([4]; microinjection directly into the periaquaductal grey): without effect; affinity, δ receptors (δ receptors): poor affinity; affinity, κ receptors (κ receptors): poor affinity
